The test system of assay [1] is TA-Luc (control construct). The experiment in a line: TA-Luc control construct transient transfection luciferase reporter assay in LAD 2 cells. In kind it is cell-based, human. The settings on record: A23187 500 ng/ml alone. An excerpt:
(§1) A calcium ionophore alone was also able to stimulate TSLP promoter activity.
On the technique in general: Reporter assays use an easily measured gene product as a stand-in for the process of interest.

Assay [2] has as its system TSLP promoter (TSLP-Luc construct). As to the kind of experiment: TSLP-Luc transient transfection luciferase reporter assay in LAD 2 cells. In kind it is cell-based, human. The note with it: A23187 500 ng/ml alone.
Excerpt: as §1

`CNc1ccc2oc(C[C@H]3O[C@@]4(CC[C@H]3C)O[C@H]([C@H](C)C(=O)c3ccc[nH]3)[C@H](C)C[C@H]4C)nc2c1C(=O)O` [A23187]: in assay [1], the “F/R luciferase activity, control construct TA-Luc” value is 29.6 units of F/R luciferase activity. Also, in assay [2], the “F/R luciferase activity, TSLP-Luc construct” value is reported as 171.0 units of F/R luciferase activity.

The values above are taken from patent US20090156467A1, “Thymic stromal lymphpoietin promoter and use therefor” (priority 2004, published 2009).
